What all share (conditions): stereoisomer not certain
Series [1] in a line: RP, Waters ACQUITY UPLC BEH C18, 100 × 2.1 mm, 1.7 µm, 0.1 mL/min, estimated dead time 2.2 min; A: water + 0.1% formic acid, pH 3; B: methanol + 0.1% formic acid, pH 3; gradient (min/%B) 0/5 5/5 25/95 25.1/100 35/100 35.1/5 45/5.
Series [2] is described as follows: RP, Waters CORTECS T3, 100 × 2.1 mm, 2.7 µm, 0.25 mL/min, estimated dead time 0.88 min; A: water + 0.1% formic acid, pH 3; B: methanol + 0.1% formic acid, pH 3; gradient (min/%B) 0/5 5/5 25/95 25.1/100 35/100 35.1/5 45/5.
Series [3] in a line: RP, Waters ACQUITY UPLC BEH C18, 100 × 2.1 mm, 1.7 µm, 0.1 mL/min, estimated dead time 2.2 min; A: water + 0.1% formic acid, pH 3; B: methanol + 0.1% formic acid, pH 3; gradient (min/%B) 0/5 5/5 25/95 25.1/100 35/100 35.1/5 45/5. This is another data set of the same source.
Series [4] in a line: RP, Waters ACQUITY UPLC BEH C18, 100 × 2.1 mm, 1.7 µm, 0.2 mL/min, estimated dead time 1.1 min; A: water + 0.025% formic acid + 20 mM ammonium acetate + 0.055% ammonium hydroxide, pH 7; B: methanol; gradient (min/%B) 0/5 5/5 25/100 30/100 30.1/5 35/5.
A short description of series [5]: RP, Waters CORTECS T3, 100 × 2.1 mm, 2.7 µm, 0.1 mL/min, estimated dead time 2.2 min; A: water + 0.1% formic acid, pH 3; B: methanol + 0.1% formic acid, pH 3; gradient (min/%B) 0/5 5/5 25/95 25.1/100 35/100 35.1/5 45/5.
A short description of series [6]: RP, Waters ACQUITY UPLC BEH C18, 100 × 2.1 mm, 1.7 µm, 0.1 mL/min, estimated dead time 2.2 min; A: water + 0.045% formic acid + 0.11% ammonium hydroxide, pH 7; B: methanol; gradient (min/%B) 0/5 5/5 25/95 25.1/100 35/100 35.1/5 45/5.
A short description of series [7]: RP, Waters CORTECS T3, 100 × 2.1 mm, 2.7 µm, 0.1 mL/min, estimated dead time 2.2 min; A: water + 0.1% formic acid, pH 3; B: methanol + 0.1% formic acid, pH 3; gradient (min/%B) 0/0 1/0 6/5 30/100 35/100 35.1/0 40/0.
A short description of series [8]: RP, Waters ACQUITY UPLC BEH C18, 100 × 2.1 mm, 1.7 µm, 0.2 mL/min, estimated dead time 1.1 min; A: water + 0.025% formic acid + 20 mM ammonium acetate + 0.055% ammonium hydroxide, pH 7; B: methanol; gradient (min/%B) 0/5 5/5 25/100 30/100 30.1/5 35/5. The source holds these as a separate data set.
Series [9] can be described thus: RP, Waters ACQUITY UPLC BEH C18, 100 × 2.1 mm, 1.7 µm, 0.2 mL/min, estimated dead time 1.1 min; A: water + 0.1% formic acid, pH 3; B: methanol + 0.1% formic acid, pH 3; gradient (min/%B) 0/5 5/5 25/100 30/100 30.1/5 35/5.
Series [10] can be described thus: RP, Waters CORTECS T3, 100 × 2.1 mm, 2.7 µm, 0.25 mL/min, estimated dead time 0.88 min; A: water + 0.1% formic acid, pH 3; B: methanol + 0.1% formic acid, pH 3; gradient (min/%B) 0/0 1/0 6/5 30/100 35/100 35.1/0 40/0.
Series [11] in a line: RP, Waters CORTECS T3, 100 × 2.1 mm, 2.7 µm, 0.3 mL/min, estimated dead time 0.73 min; A: water + 0.1% formic acid, pH 3; B: methanol + 0.1% formic acid, pH 3; gradient (min/%B) 0/5 5/5 25/95 25.1/100 35/100 35.1/5 45/5.
Series [12] in a line: RP, Waters ACQUITY UPLC BEH C18, 100 × 2.1 mm, 1.7 µm, 0.1 mL/min, estimated dead time 2.2 min; A: water + 0.1% formic acid, pH 3; B: methanol + 0.1% formic acid, pH 3; gradient (min/%B) 0/5 5/5 25/100 30/100 30.1/5 35/5.
The nature of series [13]: RP, Waters CORTECS T3, 100 × 2.1 mm, 2.7 µm, 0.2 mL/min, estimated dead time 1.1 min; A: water + 0.1% formic acid, pH 3; B: methanol + 0.1% formic acid, pH 3; gradient (min/%B) 0/0 1/0 6/5 30/100 35/100 35.1/0 40/0.
The nature of series [14]: RP, Waters CORTECS T3, 100 × 2.1 mm, 2.7 µm, 0.3 mL/min, estimated dead time 0.73 min; A: water + 0.1% formic acid, pH 3; B: methanol + 0.1% formic acid, pH 3; gradient (min/%B) 0/0 5/0 25/100 30/100 30.1/0 35/0.
Series [15] can be described thus: RP, Waters CORTECS T3, 100 × 2.1 mm, 2.7 µm, 0.2 mL/min, estimated dead time 1.1 min; A: water + 0.045% formic acid + 0.11% ammonium hydroxide, pH 7; B: methanol; gradient (min/%B) 0/5 5/5 25/95 25.1/100 35/100 35.1/5 45/5.
A short description of series [16]: RP, Waters CORTECS T3, 100 × 2.1 mm, 2.7 µm, 0.15 mL/min, estimated dead time 1.5 min; A: water + 0.1% formic acid, pH 3; B: methanol + 0.1% formic acid, pH 3; gradient (min/%B) 0/0 1/0 6/5 30/100 35/100 35.1/0 40/0.
Series [17] can be described thus: RP, Waters CORTECS T3, 100 × 2.1 mm, 2.7 µm, 0.2 mL/min, estimated dead time 1.1 min; A: water + 0.1% formic acid, pH 3; B: methanol + 0.1% formic acid, pH 3; gradient (min/%B) 0/0 1/0 6/5 30/100 35/100 35.1/0 40/0. The source holds these as a separate data set.
Series [18] can be described thus: RP, Waters CORTECS T3, 100 × 2.1 mm, 2.7 µm, 0.3 mL/min, estimated dead time 0.73 min; A: water + 0.1% formic acid, pH 3; B: methanol + 0.1% formic acid, pH 3; gradient (min/%B) 0/5 5/5 25/100 30/100 30.1/5 35/5.
A short description of series [19]: RP, Waters ACQUITY UPLC BEH C18, 100 × 2.1 mm, 1.7 µm, 0.1 mL/min, estimated dead time 2.2 min; A: water + 0.1% formic acid, pH 3; B: methanol + 0.1% formic acid, pH 3; gradient (min/%B) 0/5 5/5 25/95 25.1/100 35/100 35.1/5 45/5. This is another data set of the same source.
Series [20] is described as follows: RP, Waters CORTECS T3, 100 × 2.1 mm, 2.7 µm, 0.3 mL/min, estimated dead time 0.73 min; A: water + 0.1% formic acid, pH 3; B: methanol + 0.1% formic acid, pH 3; gradient (min/%B) 0/0 5/0 25/100 30/100 30.1/0 35/0. This is another data set of the same source.
Series [21] in a line: HILIC, Merck SeQuant ZIC-HILIC, 150 × 2.1 mm, 5 µm, 0.75 mL/min, estimated dead time 0.44 min; A: water + 0.1% acetic acid + 10 mM ammonium acetate, pH 4; B: 5% water + 95% acetonitrile + 0.1% acetic acid + 10 mM ammonium acetate, pH 4; gradient (min/%B) 0/95 5/95 20/57 25/57 30/95 40/95.
Series [22] can be described thus: RP, Waters CORTECS T3, 100 × 2.1 mm, 2.7 µm, 0.3 mL/min, estimated dead time 0.73 min; A: water + 0.1% formic acid, pH 3; B: methanol + 0.1% formic acid, pH 3; gradient (min/%B) 0/0 1/0 6/5 30/100 35/100 35.1/0 40/0.
Series [23] can be described thus: RP, Thermo Scientific Hypercarb, 150 × 2.1 mm, 5 µm, 0.1 mL/min, estimated dead time 3.3 min; A: water + 0.1% formic acid, pH 3; B: methanol + 0.1% formic acid, pH 3; gradient (min/%B) 0/5 5/5 20/100 35/100 35.1/5 45/5.
A short description of series [24]: HILIC, Waters XBridge BEH Amide, 100 × 2.1 mm, 2.5 µm, 0.5 mL/min, estimated dead time 0.44 min; A: water + 0.1% acetic acid + 10 mM ammonium acetate, pH 4; B: 5% water + 95% acetonitrile + 0.1% acetic acid + 10 mM ammonium acetate, pH 4; gradient (min/%B) 0/95 5/95 20/57 25/57 30/95 40/95.

Take `Cc1cc2nc3[nH]c(=O)[nH]c(=O)c3nc2cc1C` [LUMICHROME]: the LC retention time is 19.6 min in [1]; 15.5 min in series [2]; 19.6 min in [3]; 16 min in series [4]; 19.6 min in series [5]; 19.5 min in [6]. The LC retention time is 16.3 min in series [7]; 13.1 min in series [8]; 16 min in series [9]; 17.5 min in [10]; 15 min in [11]; 19.1 min in series [12]. The LC retention time in series [13] was 18.3 min; in series [14], 15.3 min; in series [15], 16.4 min; in [16] it was 19.6 min; in [17], 18.3 min; in series [18] it was 14.6 min. Also, the LC retention time in series [19] was 19.6 min.

Turning to `Nc1ccn(C2OC(CO)C3OP(=O)([O-])OC32)c(=O)n1` (centres undefined) [CYTIDINE 2',3'-CYCLIC MONOPHOSPHATE], the LC retention time in series [1] was 2.72 min; in series [3] it was 2.66 min; in series [8] it was 1.36 min; in [9], 1.34 min; in series [10], 1.09 min; in series [12] it was 2.74 min. Further, the LC retention time is 0.89 min in [20]; 1.34 min in [13]; 0.89 min in series [14]; 12.1 min in series [21]; 1.78 min in series [16]; 1.35 min in series [17]. Further, in [19], the LC retention time was 2.67 min.

In the case of `CCCCCCCCCCCC(=O)OC(CC(=O)[O-])C[N+](C)(C)C` (centres undefined) [LAUROYLCARNITINE], the LC retention time in [1] is 25.7 min; in series [3], 25.8 min; in series [22], 23.4 min; in series [23], 28.5 min; in [4], 22.8 min; in [5] it was 24.5 min. Also, the LC retention time in [6] was 26.6 min; in [7], 21.8 min; in series [10], 23.9 min; in series [11], 20.6 min; in series [12], 24.5 min; in series [13], 24.7 min. Further, the LC retention time was 20.3 min in series [14], 22.8 min in series [15], 25.7 min in series [16] and 20 min in [18].

As to `Cc1cc2nc[nH]c2cc1C` [DIMETHYLBENZIMIDAZOLE], the LC retention time in [1] is 15.6 min; in [3] it was 15.7 min; in series [22], 12 min; in series [4], 16.6 min; in series [5], 15.1 min; in [6], 20.5 min. Moreover, the LC retention time in series [7] is 11.8 min; in [10], 12.6 min; in series [11] it was 10.5 min; in [12], 15.2 min; in series [13], 13.4 min; in series [24], 0.65 min. Besides, the LC retention time is 11.4 min in [14], 16.5 min in series [15], 14.7 min in series [16] and 10.4 min in series [18].

The values are drawn from the RepoRT retention time repository (doi:10.1016/j.jchromb.2020.122105).
